{
  "source": "patent US9877993B2",
  "about": "“Composition for cognitive and cosmetic purposes” (BIOTROPICS MALAYSIA BERHAD, priority 2012, dated 2018)",
  "key": {"[1]": {"system": "Collagenase from Clostridium histolyticum", "assay": "Collagenase inhibition bioassay in vitro (EnzChek gelatinase/collagenase kit)", "format": "biochemical", "experimental": "Solvents and reagents: EnzChek™gelatinase/Collagenase Assay kit (E12055, Molecular probes, Invitrogen, USA, Stored at −20° C.) containing: DQ gelatin from pigskin, Flourescein conjugate, 10× reaction buffer, 1,10 Phenanthroline monohydrate, Collagenase from Clostridium histolyticum.\n2.5 mg of sample was prepared by dissolving it into 200 μl of DMSO and made up to 10 ml with 1× reaction buffer. Further dilutions were made as required. The enzymatic cleavage of DQ gelatin, Flourescein conjugate releases flourescent peptide. The increase in fluorescence is proportional to proteolytic activity. The digested product form DQ gelatin, Flourescein conjugate is excited with light at 490 nm and the emitted light at 520 nm is detected in a fluorometric plate reader.\nCollagenase inhibition assay was carried out as per the kit insert of EnzChek™gelatinase/Collagenase Assay kit (E12055, Molecular probes, Invitrogen, USA). In brief, 80 μl of 1× reaction buffer/vehicle buffer/test solution/positive control of various concentrations, 100 μl of enzyme solution (0.1 units/ml), 20 μl of substrate solution (1 mg/ml) were added and mixed for 15 sec, incubated at 25° C. for 2 hours and read in a fluorescence microplate reader [Fluostar Optima, BMG Labtech, Germany] with the following parameters wherein it was excited at 490 nm, and the emission at 520 nm was recorded by the Costar 96 fluorometric plate reader.\nA control reaction was carried out without the test samples respective sample blanking, control blanking and vehicle blanking were done (which contained all reagents except the enzymes). The percentage inhibition was calculated as follows:\n[formula] where AFU=arbitrary fluorescence units and IC50 was calculated using log-probit analysis."}, "scopolamine treated mice": {"system": "scopolamine treated mice", "assay": "Barnes maze, scopolamine induced deficits in learning and memory", "format": "in vivo, C57BL/6 mice", "from_the_text": "The animals are placed on an elevated, open, circular platform. The animal is exposed to intense light, or to a loud noise. In response to this intense stimulation the animal searches for shelter and enters one of the holes around the platform. Although the device was originally designed to be used with rats, soon it experienced modifications in order to be used with mice as well. Indeed, the device has been considered appropriate for this species because of its ability to find and escape through small holes.\nScopolamine, a muscarinic cholinergic antagonist, is known to cause impairments in Barnes maze testing. These impairments can be reversed by increasing cholinergic tone by the administration of cholinesterase inhibitors such as donepezil.\nThe scopolamine induced deficits in learning were evidenced by the increase in both total and primary errors, total and primary latency and total and primary path length. The Barnes mazes testing involves the parameters as set forth below.\nPrimary Path Length (cm): The distance moved by the subject before first contact with the escape hole. First contact is defined as the point of the nose touching the escape hole.\nTotal Path Length (cm): The distance moved by the subject before completing the task. Completion of task is defined as the entering of the subject into escape box. This ends the trial.\nPrimary Errors: The count of the number of errors made by the subject before first contact with the escape hole. Any contact of the nose point to a non-escape hole is considered as an error. Multiple contacts to the same non-escape hole are counted as multiple errors under this context. Total Errors: The count of the number of errors made by the subject throughout the trial. Any contact of the nose point to a non-escape hole is considered as an error. Multiple contacts to the same non-escape hole are counted as multiple errors under this context. Primary Latency (sec): The latency to the first contact with the escape hole by the nose point of the subject. Total Latency (sec): The latency for subject to complete the task. Completion of task is defined as the entering of the subject into escape box, which ends the trial. (i) Test Article\nThe test articles, propriety Polygonum minus extract and commercially available Ginkgo biloba extract (comparator extract) were used in this study. These extracts were prepared and stored for the project to the supplier's specifications. The doses of the extract chosen for the study were identified by the supplier A 30× stock suspension was prepared every week for each article. This was aliquot into batches which were then stored at 4° C. throughout the week. The stock suspension was diluted with ultra-pure water to working concentration every day before the dosing, and discarded after the dosing. Oral gavage needles were filled with the required amounts of suspension. Care was taken to ensure the even distribution of particles by vortex-mixing the suspensions before preparation in individual syringes, and also by syringe-mixing the diluted test article. The dose and time of scopolamine administration has been previously shown to produce deficits in spatial navigation tasks in rodents. The dose was increased from the initially reported 0.3 mg/kg to 0.5 mg/kg, as the higher dose would produce a more reliable deficit.\n2-6 month-old male C57BL/6 mice (20-25 g), (n=12 to 14) were supplied by BioLASCO (Taiwan). They were housed in an IVC system (Allentown, USA) under a 12/12-h light/dark (200-300 Lux) cycle (lights on 07:00 h) with free access to food (Labdiet, formulated laboratory chow) and water and humidity keep between 50%-70%. The total animals used for each treatment are shown in the Table 13 below (subjects used for each arm in the experiment).\nChronic treatment via p.o. was conducted with the TEST COMPOUNDS (test dose 1 and 2) as per Table 12 and Table 12 above and CONTROL […] (vehicle and ginkgo) continuously for 19 days. Dosing was given daily at 1800 hr. […]"}, "[2]": {"settings": "donepezil 1 mg/kg i.p. + scopolamine"}, "[3]": {"settings": "scopolamine 0.5 mg/kg i.p. vs vehicle control treated group"}, "[4]": {"settings": "scopolamine 0.5 mg/kg i.p. vs vehicle treated control mice"}},
  "note": "Read-outs that look alike come from different tables or passages of the source.",
  "data": [
    {"smiles": "O.c1cnc2c(c1)ccc1cccnc12", "note": "[1,10-Phenanthroline monohydrate]", "values": [
      {"measurement": "% inhibition", "setting": "[1]", "value": 40.81, "unit": "%"},
      {"measurement": "% inhibition", "setting": "[1]; 12.5 μM", "value": 0.00, "unit": "%"},
      {"measurement": "% inhibition", "setting": "[1]; 25 Mm", "value": 11.60, "unit": "%"},
      {"measurement": "% inhibition", "setting": "[1]; 100 Mm", "value": 88.00, "unit": "%"},
      {"measurement": "IC50", "setting": "[1]; log-probit analysis, read-out: IC50 (95% confidence interval)", "value": 53.2, "unit": "µM"}
    ]},
    {"smiles": "COc1cc2c(cc1OC)C(=O)C(CC1CCN(Cc3ccccc3)CC1)C2", "note": "(stereo not shown) [donepezil]", "values": [
      {"measurement": "Primary and total latency, scopolamine induced deficit", "setting": "scopolamine treated mice; [2]", "value": "A similar result is obtained"},
      {"measurement": "Scopolamine induced deficits in acquisition (learning) phase", "setting": "scopolamine treated mice; [2]", "value": "attenuated"},
      {"measurement": "Path length, scopolamine induced deficit", "setting": "scopolamine treated mice; donepezil 1 mg/kg i.p. + scopolamine 0.5 mg/kg i.p.", "value": "did not show a scopolamine induced deficit"},
      {"measurement": "Probe trial, time spent in target segment (memory deficit)", "setting": "scopolamine treated mice; donepezil 1 mg/kg i.p. + scopolamine, day 5", "value": "reversed the scopolamine deficit"},
      {"measurement": "Total errors, scopolamine induced deficit", "setting": "scopolamine treated mice; donepezil 1 mg/kg i.p. + scopolamine, days one and two", "value": "deficits for total errors were not seen"}
    ]},
    {"smiles": "CN1[C@@H]2C[C@@H](OC(=O)[C@H](CO)c3ccccc3)C[C@H]1[C@@H]1O[C@@H]12", "note": "[scopolamine]", "values": [
      {"measurement": "Primary and total latency, learning", "setting": "scopolamine treated mice; scopolamine 0.5 mg/kg i.p. vs vehicle control", "value": "induces a deficit in learning"},
      {"measurement": "Primary path length, performance", "setting": "scopolamine treated mice; [3]", "value": "decreased performance only on day two"},
      {"measurement": "Total path length, days with decreased performance", "setting": "scopolamine treated mice; [3]", "value": "days one two and three"},
      {"measurement": "Primary errors, learning", "setting": "scopolamine treated mice; [4]", "value": "induced a deficit in learning on day two"},
      {"measurement": "Total errors, days with deficit in learning", "setting": "scopolamine treated mice; [4]", "value": "on days one and two"},
      {"measurement": "Probe trial, preference for target segment (memory)", "setting": "scopolamine treated mice; scopolamine 0.5 mg/kg i.p., day 5", "value": "induced a deficit in memory"}
    ]}
  ]
}
